Data reported in ChEMBL document CHEMBL5365443, “Synthesis and biological evaluation of simplified ajudazol derivatives reveal potent 5-lipoxygenase inhibition and considerable apoptotic activity in neuroblastoma cells” (Bioorg Med Chem Lett, 2023).
pIC50: −log10 of the molar value. Calls of active or inactive are those of the source. No cut-off for these calls is given here.

What was measured:
B104 [1] = experiment: Upregulation of OGDH level in rat B104 cells at 10 nM; assay type: functional, cell-based
B104 [2] = experiment: Upregulation of LDH level in rat B104 cells at 10 nM; assay type: functional, cell-based
B104 [3] = experiment: Antiproliferative activity against rat B104 cells assessed as reduction in cell growth at 10 to 1000 nM; assay type: functional, cell-based; details: dose 10-1000 nM
[4] = target: T1, Polyunsaturated fatty acid 5-lipoxygenase (Homo sapiens, UniProt P09917); experiment: Inhibition of 5-LO in human neutrophils; assay type: cell-based, Neutrophil
T1 sequence (P09917 whole entry): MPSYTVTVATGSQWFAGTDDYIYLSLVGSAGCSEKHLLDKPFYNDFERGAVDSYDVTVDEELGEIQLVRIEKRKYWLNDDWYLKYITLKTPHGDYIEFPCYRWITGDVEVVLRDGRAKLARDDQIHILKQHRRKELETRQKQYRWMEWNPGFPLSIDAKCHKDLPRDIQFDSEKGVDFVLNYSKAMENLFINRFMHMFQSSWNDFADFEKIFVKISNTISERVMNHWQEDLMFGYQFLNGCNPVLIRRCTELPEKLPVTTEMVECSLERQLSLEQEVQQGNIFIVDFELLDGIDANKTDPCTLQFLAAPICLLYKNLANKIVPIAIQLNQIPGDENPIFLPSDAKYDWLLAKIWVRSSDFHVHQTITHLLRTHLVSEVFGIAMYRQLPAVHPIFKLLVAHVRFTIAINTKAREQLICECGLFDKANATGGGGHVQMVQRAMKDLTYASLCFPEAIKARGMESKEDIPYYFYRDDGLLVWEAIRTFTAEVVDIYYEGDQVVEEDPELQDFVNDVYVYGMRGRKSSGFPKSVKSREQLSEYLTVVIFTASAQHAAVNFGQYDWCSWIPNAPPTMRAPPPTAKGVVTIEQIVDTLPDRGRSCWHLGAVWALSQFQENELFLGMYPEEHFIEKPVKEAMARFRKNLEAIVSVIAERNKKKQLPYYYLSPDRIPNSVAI

[5] = target: T1, Polyunsaturated fatty acid 5-lipoxygenase; experiment: Inhibition of 5-LO (unknown origin)
B104 [6] = experiment: Induction of apoptosis in rat B104 cells assessed as DNA fragmentation at 100 uM by DNA laddering assay; assay type: functional, cell-based
1321N1 = experiment: Antiproliferative activity against human 1321N1 cells assessed as inhibition of cell growth by MTT assay; assay type: functional, cell-based
Prostaglandin E synthase = target: T2, Prostaglandin E synthase (Homo sapiens, UniProt O14684); experiment: Inhibition of mPGES-1 (unknown origin)
T2 sequence (O14684 whole entry): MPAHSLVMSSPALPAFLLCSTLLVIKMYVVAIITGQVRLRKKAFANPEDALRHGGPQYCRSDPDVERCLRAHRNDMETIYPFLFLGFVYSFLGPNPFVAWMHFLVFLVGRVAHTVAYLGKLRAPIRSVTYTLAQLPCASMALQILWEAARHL

SH-SY5Y = experiment: Antiproliferative activity against human SH-SY5Y cells assessed as reduction in cell growth at 10 to 1000 nM; assay type: functional, cell-based; details: dose 10-1000 nM
B104 [7] = experiment: Induction of apoptosis in rat B104 cells assessed as DNA fragmentation at 10 uM by DNA laddering assay; assay type: functional, cell-based
B104 [8] = experiment: Upregulation of ICDH level in rat B104 cells at 10 nM; assay type: functional, cell-based
B104 [9] = experiment: Antiproliferative activity against rat B104 cells assessed as reduction in cell growth by MTT assay; assay type: functional, cell-based
B104 [10] = experiment: Upregulation of ICDH mRNA expression in rat B104 cells; assay type: functional, cell-based
B104 [11] = experiment: Upregulation of […] mRNA expression in rat B104 cells; assay type: functional, cell-based
B104 [12] = experiment: Upregulation of LDH mRNA expression in rat B104 cells; assay type: functional, cell-based
B104 [13] = experiment: Upregulation of NADH mRNA expression in rat B104 cells; assay type: functional, cell-based
B104 [14] = experiment: Effect on NADH:UQ oxidoreductase expression in rat B104 cells; assay type: functional, cell-based
[15] = Drug degradation in methanol assessed as half life; assay type: ADME

Compound | Activity (B104 [1]) | Activity (B104 [2]) | Activity (B104 [3]) | pIC50 [4] | pIC50 [5] | Activity (B104 [6]) | pIC50 (1321N1) | pIC50 (Prostaglandin E synthase) | Activity (SH-SY5Y) | Activity (B104 [7]) | Activity (B104 [8]) | Activity (B104 [9]) | Activity (B104 [10]) | Activity (B104 [11]) | Activity (B104 [12]) | Activity (B104 [13]) | Activity (B104 [14]) | half-life [15] [h]
C=C(C/C=C\C=C/CC/C=C/CN(C)C(=O)/C=C(\C)OC)c1nc(C[C@H](C)[C@@H]2CC[C@@H](C)C[C@H]2O)co1 | Active | inactive | Active | 5.28 | 6.00 | inactive | 5.48 | 4.73 | Active | Active | Active | Active |  |  |  |  |  | 
C=C(C/C=C\C=C/CC/C=C/CN(C)C(=O)/C=C(\C)OC)c1ncco1 |  |  |  | < 4.52 | 4.61 |  | 5.37 | < 4.52 |  |  |  |  |  |  |  |  |  | 
C=C(I)CCO[Si](CC)(CC)CC |  |  |  |  |  |  |  |  |  |  |  |  | Active | Active | inactive | Active | Active | 
C=C(C/C=C\C=C/CC/C=C/CN(C)C(=O)/C=C(\C)OC)c1nc(C[C@@H](C)[C@H]2OC(=O)c3c(ccc(C)c3O)[C@@H]2O)co1 |  |  | Active | 5.60 | 5.96 | inactive | 5.03 | 5.49 | Active | Active |  | Active |  |  |  |  |  | ~168
CO/C(C)=C/C(=O)N(C)C/C=C/CC/C=C\C=C/C[C@@H](C)c1nc(C[C@@H](C)[C@H]2OC(=O)c3c(ccc(C)c3O)[C@@H]2O)co1 |  |  |  | 5.80 | 5.16 |  |  |  |  |  |  |  |  |  |  |  |  | 
